Consider one molecule from article PMC6345779, “Hypoculoside, a sphingoid base-like compound from Acremonium disrupts the membrane integrity of yeast cells” (Scientific Reports, 2019).

The test system of this test is vps35Δ, pep8Δ, vps20Δ, vps27Δ and vps36Δ strains. Put plainly: Single-mutant sensitivity growth assay of deletion strains in YPD medium. The class given is cell-based, Saccharomyces cerevisiae. How it is done: Figure 3 Homozygous profiling of hypoculoside in Saccharomyces cerevisiae. (A) logFC (Fitness Coefficient) was plotted against P-value for the 3702 mutants that were analyzed by HOP. The more negative the logFC value of a mutant, more sensitive is the mutant to hypoculoside. Mutants that have logFC < −0.5 and P-value < 0.05 are indicated by red dots and the remaining strains are indicated as blue dots. For the sake of clarity, gene names of only a subset of the top hits are indicated in the plot. (B) Wild type strain BY4743 and 24 deletion strains that were sensitive to hypoculoside in the HOP assay, were grown in the YPD medium in the presence of either DMSO or hypoculoside at different concentrations (0, 0.6, 1.3, 2.7 and 5.5 µM). Normalized growth at the different concentrations of hypoculoside tested after 24 hours of incubation at 30 °C is plotted for each strain.
To test the validity of our HOP data, we first identified 336 ‘hypoculoside-sensitive’ mutants (Supplementary Table S1) that had at least a 1.4-fold inhibitory effect on their growth rate (i.e. logFC ≤ −0.5) with a P-value ≤ 0.05. From the list of 336 mutants, we chose 24 mutants that represent different Gene Ontology categories (see below) and tested their sensitivity to hypoculoside. Eighteen of the total 24 mutants were sensitive to hypoculoside confirming the HOP data (Fig. 3B). We also tested mutants that were predicted to be resistant to hypoculoside (positive logFC ≥ 0.5 and P-value ≤ 0.05). But none of them were resistant to hypoculoside in comparison to wild type strain in the single-mutant sensitivity assays (data not shown).
Figure 5 Structure-activity studies of hypoculoside. (A) Wild type strain (BY4743), vps35Δ, pep8Δ, vps20Δ, vps27Δ and vps36Δ strains were grown in YPD medium in the presence of hypoculoside or hypoculine at the indicated concentrations. Normalized growth at the different concentrations of hypoculoside and hypoculine tested after 24 hours of incubation at 30 °C is plotted for each strain. (B) Wild type strain (BY4743), vps35Δ, pep8Δ, vps20Δ, vps27Δ and vps36Δ strains were grown in YPD medium in the presence of hypoculoside or phytosphingosine or dihydrosphingosine at the indicated concentrations. Normalized growth at the different concentrations of hypoculoside, phytosphingosine and dihydrosphingosine tested after 24 hours of incubation at 30 °C is plotted for each strain.

Consider `CC(N)C(O)CCCCCCCCCCCCCCCCCCC(O)C(C)OC1OC(CO)C(O)C(O)C1O` (stereo not drawn) [hypoculoside, Hypoculoside], for which, where the note is “5.5 µM, YPD, 24 hours at 30 °C”, the “inhibition of growth of the vps35, pep8, vps20, vps27 and vps36 mutants” value is given as “completely inhibited”. Moreover, under “YPD, 24 hours at 30 °C (Fig. 5A)”, the “concentration that inhibited the growth of the vps35, pep8, vps20, vps27 and vps36 mutants” value stood at 5.5 µM. In addition, for the setting “several vesicular trafficking mutants”, the “toxicity to vesicular trafficking mutants in comparison to the wild type strain” value is given as “two-fold more toxic”.
